# Assay results reported in patent publication US7745646B2, “Bicyclic heteroaryl inhibitors of PDE4” (Kalypsys, Inc., priority 2006, dated 2010).
# Biological target: T1, PDE4B (Homo sapiens, UniProt Q07343)
# T1 construct: hex-histidine (His6) (N); made in house
# Assay: Novel coupled PDE/AK bioluminescent assay, PDE4B inhibition
# Assay type: biochemical
# Conditions: PDE4B catalytic domain
# Text: We developed a novel coupled PDE/AK bioluminescent high-throughput assay to measure the activity of phosphodiesterases. In the PDE/AK assay, the AMP produced from the hydrolysis of cAMP by phosphodiesterase is converted to adenosine diphosphate (ADP) by the phosphotransferase activity of adenylate kinase (also known as ADK or myokinase). Adenylate kinase will catalyze the conversion of 1 mole of AMP and 1 mole of ATP into 2 moles of ADP. Thus the conversion of AMP to ADP will result in the subsequent loss of ATP. The decrease in ATP concentration can be monitored as light output using luciferase in a reaction that requires ATP to produce light. The PDE/AK assay uses luciferase, which catalyzes the production of light from ATP present in the reaction mix. The amount of emitted light is inversely proportional to the level of AMP present in the reaction. Test compounds are incubated with the phosphodiesterases and phosphodiesterase inhibitors will decrease the rate of cAMP hydrolysis and decrease the subsequent production of AMP.
# A novel coupled PDE/AK assay was utilized to measure the inhibitory activity of compounds on PDE isoforms. The catalytic domain of PDE4B was fused to an amino-terminus hex-histidine affinity tag and purified. PDE4B enzyme was incubated with compounds for 10 minutes. Cyclic AMP substrate, ATP and adenylate kinase were then added to the PDE enzyme mix and incubated for 45 minutes at room temperature. A commercial ATP detection assay, Perkin Elmer's easyLite ATP detection reagent, was then added to measure the relative amount of ATP present in the reaction. After 10 minute incubation, the luminescent signal was quantitated with either the Perkin Elmer Viewlux or Molecular Devices Acquest or Analyst.
# T1 sequence (Q07343 330-659 limits assumed, species assumed): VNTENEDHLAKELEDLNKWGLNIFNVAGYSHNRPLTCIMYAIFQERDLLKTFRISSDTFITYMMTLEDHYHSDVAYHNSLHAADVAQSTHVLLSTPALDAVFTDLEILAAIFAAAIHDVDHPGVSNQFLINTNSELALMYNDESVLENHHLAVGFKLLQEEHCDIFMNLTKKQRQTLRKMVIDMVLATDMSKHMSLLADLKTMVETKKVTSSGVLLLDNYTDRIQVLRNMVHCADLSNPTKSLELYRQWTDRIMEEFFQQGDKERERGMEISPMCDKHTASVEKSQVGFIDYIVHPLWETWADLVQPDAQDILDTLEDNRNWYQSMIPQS
row,SMILES,IC50
1,"COc1ccc2c(Nc3c(Cl)cncc3Cl)cc(=O)oc2c1OCCCCCn1nccn1 [Example 99, 8-(5-(2H-1,2,3-Triazol-2-yl)pentyloxy)-4-(3,5-dichloropyridin-4-ylamino)-7-methoxy-2H-chromen-2-one]",< 1000 nM
2,"CNCCCCCOc1c(OC)ccc2c(Nc3c(Cl)cncc3Cl)cc(=O)oc12 [Example 100, 4-(3,5-Dichloropyridin-4-ylamino)-7-methoxy-8-(5-(methylamino)pentyloxy)-2H-chromen-2-one]",< 1000 nM
3,"COc1ccc2c(Nc3c(Cl)cncc3Cl)cc(=O)oc2c1OCCCCCn1ncnn1 [Example 101, 8-(5-(2H-Tetrazol-2-yl)pentyloxy)-4-(3,5-dichloropyridin-4-ylamino)-7-methoxy-2H-chromen-2-one]",< 1000 nM
4,"COc1ccc2c(Nc3c(Cl)cncc3Cl)cc(=O)oc2c1OCCCCCn1cnnn1 [Example 102, 8-(5-(1H-Tetrazol-1-yl)pentyloxy)-4-(3,5-dichloropyridin-4-ylamino)-7-methoxy-2H-chromen-2-one]",< 1000 nM
5,"COc1ccc2c(Nc3c(Cl)cncc3Cl)cc(=O)oc2c1OCCCCCn1cncn1 [Example 103, 8-(5-(1H-1,2,4-Triazol-1-yl)pentyloxy)-4-(3,5-dichloropyridin-4-ylamino)-7-methoxy-2H-chromen-2-one]",< 1000 nM
6,"COc1ccc2c(Nc3c(Cl)cncc3Cl)cc(=O)oc2c1OCCCCCOP(=O)(O)O [Example 104, 5-(4-(3,5-Dichloropyridin-4-ylamino)-7-methoxy-2-oxo-2H-chromen-8-yloxy)pentyl dihydrogen phosphate]",< 1000 nM
7,CNP(=O)(NC)OCCCCCOc1c(OC)ccc2c(Nc3c(Cl)cncc3Cl)cc(=O)oc12 [Example 105],< 1000 nM

# Results, then the molecule that gave them:
row,IC50,SMILES
1,< 1000 nM,"COc1ccc2c(Nc3c(Cl)cncc3Cl)cc(=O)oc2c1OC1CCCC1 [Example 3, 8-(Cyclopentyloxy)-4-(3,5-dichloropyridin-4-ylamino)-7-methoxy-2H-chromen-2-one]"
2,< 1000 nM,"COc1ccc2c(Nc3c(Cl)cncc3Cl)cc(=O)oc2c1OCC1CC1 [Example 5, 8-(Cyclopropylmethoxy)-4-(3,5-dichloropyridin-4-ylamino)-7-methoxy-2H-chromen-2-one]"
3,< 1000 nM,"COc1ccc2c(Nc3c(Cl)cncc3Cl)cc(=O)oc2c1OCCCCCC(=O)NCC(=O)O [Example 96, 2-(6-(4-(3,5-Dichloropyridin-4-ylamino)-7-methoxy-2-oxo-2H-chromen-8-yloxy)hexanamido)acetic acid]"
4,< 1000 nM,"COc1ccc2c(Nc3c(Cl)cncc3Cl)cc(=O)oc2c1OCCCCCC(=O)N[C@@H](C)C(=O)O [Example 97, (S)-2-(6-(4-(3,5-Dichloropyridin-4-ylamino)-7-methoxy-2-oxo-2H-chromen-8-yloxy)hexanamido)propanoic acid]"
5,< 1000 nM,"COc1ccc2c(Nc3c(Cl)cncc3Cl)cc(=O)oc2c1OCCCCCn1ccnn1 [Example 98, 8-(5-(1H-1,2,3-Triazol-1-yl)pentyloxy)-4-(3,5-dichloropyridin-4-ylamino)-7-methoxy-2H-chromen-2-one]"

# Test system: Lacrimal Gland Inflammation-Induced Dry Eye in Rabbits
# Assay: Lacrimal Gland Inflammation-Induced Dry Eye in Rabbits
# Assay type: in vivo
# Conditions: 1 percent, topical ocular BID, rabbit dry eye
# Text: A more detailed description of the assay used herein may be found in Naglehout, T J et al. 2005, “Preservation of Tear Film Integrity and Inhibition of Corneal Injury by Dexamethasone in a Rabbit Model of Lacrimal Gland Inflammation-Induced Dry Eye,” J. Ocular Pharm. Ther., 21:2. 139-148, the disclosure of which is hereby incorporated by reference as if written herein in its entirety.
# Rabbits (n=4/group) were randomized into treatment groups and dosed topically BID with maxidex vehicle or test drug beginning one day prior to initiation of dry eye. Each rabbit received bilateral lacrimal gland injections of saline or ConA (300 μg/30 μl) and topical ocular dosing was continued BID throughout the study.
# Desiccation was initiated 1-2 hours following lacrimal gland injection by placing conscious rabbits in the environmental chamber (10-15% humidity/72° F.). […] Absorbance of the extracted dye was determined at 660 nm.
# TBUT was quantified in a separate group of treated animals. TBUT was determined by instilling 5 μL sodium fluorescein into the cul de sac and manually blinking the lids to distribute the fluorescein within the tear film. Under slit lamp observation, the eye was held open and the time whereby one or more black spots or streaks appeared in the precorneal tear film was recorded. […]
row,SMILES,Activity at Percent Concentration Tested
1,"COc1ccc2c(Nc3c(Cl)cncc3Cl)cc(=O)oc2c1OC1CCCC1 [Example 3, 8-(Cyclopentyloxy)-4-(3,5-dichloropyridin-4-ylamino)-7-methoxy-2H-chromen-2-one]",Inactive
2,"COc1ccc2c(Nc3c(Cl)cncc3Cl)cc(=O)oc2c1OCC1CC1 [Example 5, 8-(Cyclopropylmethoxy)-4-(3,5-dichloropyridin-4-ylamino)-7-methoxy-2H-chromen-2-one]",Inactive
